Assay results as given in patent US20220289753A1, “SHP2 INHIBITORS” (IRBM S.P.A., priority 2019, published 2022).
Like-named read-outs stand apart in the source and are kept apart here.

What was measured:
[1] = tested on: ERK phosphorylation in KYSE-520 cells; assay: Phospho-ERK cellular assay (Advanced phospho-ERK1/2 (Thr202/Tyr204) TR-FRET kit); format: cell-based; conditions: Homo sapiens, KYSE-520, 2 h, read-out: pERK IC50
Method in brief: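 IC50 values are inflection points of four-parameter logistic fits of percent activity against compound dilution. Compound exposure lasted 2 h at 37° C in KYSE-520 cells. Lysates were probed overnight with Eu-cryptate/d2 antibodies to ERK1/2 phosphorylated at Thr202/Tyr204, so reduced TR-FRET indicates SHP2 inhibition.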

[2] = biological target: T1, SHP-2 enzyme (Met1-Leu525) (Homo sapiens, UniProt Q06124); assay: SHP2 inhibition enzymatic assay (DiFMUP substrate, IRS1 peptide activation); format: biochemical; conditions: SHP2 wt; activated by 500 nM IRS1 peptide; 75 μM DiFMUP substrate
T1 construct: synthetized by Origene, Met1-Leu525, cat #TP750155; purchased Origene TP750155
T1 sequence (Q06124 1-525): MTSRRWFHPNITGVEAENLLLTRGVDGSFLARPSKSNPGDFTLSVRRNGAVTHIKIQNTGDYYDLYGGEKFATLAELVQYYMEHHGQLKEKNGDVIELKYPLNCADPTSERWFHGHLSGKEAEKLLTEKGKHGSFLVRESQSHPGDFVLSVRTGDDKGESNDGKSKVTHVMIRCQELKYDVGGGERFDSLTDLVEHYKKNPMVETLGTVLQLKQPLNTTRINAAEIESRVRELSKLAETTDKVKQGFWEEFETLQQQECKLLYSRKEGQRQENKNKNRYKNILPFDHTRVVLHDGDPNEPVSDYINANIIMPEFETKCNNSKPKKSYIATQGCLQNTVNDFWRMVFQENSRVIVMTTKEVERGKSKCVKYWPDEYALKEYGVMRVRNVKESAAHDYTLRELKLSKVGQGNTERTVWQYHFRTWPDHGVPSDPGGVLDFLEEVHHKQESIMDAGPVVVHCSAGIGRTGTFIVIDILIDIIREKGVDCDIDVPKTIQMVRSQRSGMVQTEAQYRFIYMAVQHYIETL
Method in brief: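 SHP-2 (Met1-Leu525, 0.5 nM final) preincubated 30 min with compounds and IRS1 activating peptide in HEPES pH 7.2 buffer with NaCl, KCl, EDTA, tween-20, 5 mM DTT. DiFMUP then added for 30 min at room temperature and fluorescence read. IC50 from four-parameter logistic fit of % inhibition.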

[3] = KYSE-520 cells, 2 h at 37° C., TR-FRET

Structure (SMILES)	IC50 [1, 3] [nM]	IC50 [2] [nM]	IC50 [1] [nM]
C[C@@H]1OCC2(CCN(c3nc4nc(Sc5cccnc5C(F)(F)F)cnc4[nH]3)CC2)[C@@H]1N [Example 96, (3S,4S)-3-methyl-8-(5-((2-(trifluoromethyl)pyridin-3-yl)thio)-1H-imidazo[4,5-b]pyrazin-2-yl)-2-oxa-8-azaspiro[4.5]decan-4-amine]	1000 to 5000	< 500	–
COc1ccncc1Sc1cnc2[nH]c(N3CCC4(CC3)Cc3ccccc3[C@H]4N)nc2n1 [Example 237, (S)-1′-(5-((4-methoxypyridin-3-yl)thio)-1H-imidazo[4,5-b]pyrazin-2-yl)-1,3-dihydrospiro[indene-2,4′-piperidin]-1-amine]	> 5000	< 500	–
N[C@@H]1c2ccncc2CC12CCN(c1nc3ncc(Sc4ccnc(NC5CC5)c4Cl)nc3[nH]1)CC2 [Example 196, (S)-1′-(5-((3-chloro-2-(cyclopropylamino)pyridin-4-yl)thio)-1H-imidazo[4,5-b]pyrazin-2-yl)-5,7-dihydrospiro[cyclopenta[c]pyridine-6,4′-piperidin]-5-amine]	< 1000	< 500	–
CC(=O)N1CC(F)(F)c2c(Sc3cnc4[nH]c(N5CCC6(CC5)Cc5ccccc5[C@H]6N)nc4n3)cccc21 [Example 135, (S)-1-(4-((2-(1-amino-1,3-dihydrospiro[indene-2,4′-piperidin]-1′-yl)-1H-imidazo[4,5-b]pyrazin-5-yl)thio)-3,3-difluoroindolin-1-yl)ethan-1-one]	< 1000	< 500	–
N[C@@H]1c2ccccc2CC12CCN(c1[nH]c3ncc(Sc4cccc(Cl)c4Cl)nc3c1Cl)CC2 [Example 248, (S)-1′-(7-chloro-2-((2,3-dichlorophenyl)thio)-5H-pyrrolo[2,3-b]pyrazin-6-yl)-1,3-dihydrospiro[indene-2,4′-piperidin]-1-amine]	1000 to 5000	< 500	–
CC1(N)CCN(c2nc3nc(Sc4ccccc4S(F)(F)(F)(F)F)cnc3[nH]2)CC1 [Example 74, 4-methyl-1-(5-((2-(pentafluoro-l6-sulfaneyl)phenyl)thio)-1H-imidazo[4,5-b]pyrazin-2-yl)piperidin-4-amine]	1000 to 5000	< 500	–
Cc1nc2nc(N3CCC(C)(N)CC3)[nH]c2nc1Sc1cccc(Cl)c1Cl [Example 133, 1-(5-((2,3-dichlorophenyl)thio)-6-methyl-1H-imidazo[4,5-b]pyrazin-2-yl)-4-methylpiperidin-4-amine]	> 5000	< 500	–
COc1cnccc1Sc1cnc2nc(N3CCC4(CC3)Cc3ccc(F)cc3[C@H]4N)[nH]c2n1 [Example 182]	< 1000	< 500	–
CC1(N)CCN(c2nc3nc(Sc4cccc5cccnc45)cnc3[nH]2)CC1 [Example 88, 4-methyl-1-(5-(quinolin-8-ylthio)-1H-imidazo[4,5-b]pyrazin-2-yl)piperidin-4-amine]	> 5000	< 500	–
N[C@@H]1c2ccccc2CC12CCN(c1nc3nc(Sc4ccncc4Cl)cnc3[nH]1)CC2 [Example 148, (S)-1′-(5-((3-chloropyridin-4-yl)thio)-1H-imidazo[4,5-b]pyrazin-2-yl)-1,3-dihydrospiro[indene-2,4′-piperidin]-1-amine]	–	< 500	< 1000
CC1(N)CCN(c2nc3nc(Sc4ccccc4C(F)(F)F)cnc3[nH]2)CC1 [Example 18, 4-methyl-1-(5-((2-(trifluoromethyl)phenyl)thio)-1H-imidazo[4,5-b]pyrazin-2-yl)piperidin-4-amine]	1000 to 5000	< 500	–
Cc1nc(COc2cnccc2Sc2cnc3[nH]c(N4CCC5(CC4)Cc4ccccc4[C@H]5N)nc3n2)co1 [Example 227, (S)-1′-(5-((3-((2-methyloxazol-4-yl)methoxy)pyridin-4-yl)thio)-1H-imidazo[4,5-b]pyrazin-2-yl)-1,3-dihydrospiro[indene-2,4′-piperidin]-1-amine]	> 5000	< 500	–
N[C@@H]1c2ccccc2CC12CCN(c1nc3nc(Sc4cncnc4C(F)(F)F)cnc3[nH]1)CC2 [Example 156, (S)-1′-(5-((4-(trifluoromethyl)pyrimidin-5-yl)thio)-1H-imidazo[4,5-b]pyrazin-2-yl)-1,3-dihydrospiro[indene-2,4′-piperidin]-1-amine]	> 5000	< 500	–
CN1C(=O)C(F)(F)c2c(Sc3cnc4[nH]c(N5CCC6(CC5)Cc5ccccc5[C@H]6N)nc4n3)cccc21 [Example 134, (S)-4-((2-(1-amino-1,3-dihydrospiro[indene-2,4′-piperidin]-1′-yl)-1H-imidazo[4,5-b]pyrazin-5-yl)thio)-3,3-difluoro-1-methylindolin-2-one]	< 1000	< 500	–
CNc1nccc(Sc2cnc3[nH]c(N4CCC5(CC4)Cc4ccccc4[C@H]5N)nc3n2)c1C#N [Example 201, (S)-4-((2-(1-amino-1,3-dihydrospiro[indene-2,4′-piperidin]-1′-yl)-1H-imidazo[4,5-b]pyrazin-5-yl)thio)-2-(methylamino)nicotinonitrile]	< 1000	< 500	–

Now from value to molecule, other results behind:

IC50 [1, 3] [nM]	IC50 [2] [nM]	Structure (SMILES)	IC50 [1] [nM]
> 5000	< 500	CCNc1nccc(Sc2cnc3[nH]c(N4CCC5(CC4)Cc4ccccc4[C@H]5N)nc3n2)c1Cl [Example 246, (S)-1′-(5-((3-chloro-2-(ethylamino)pyridin-4-yl)thio)-1H-imidazo[4,5-b]pyrazin-2-yl)-1,3-dihydrospiro[indene-2,4′-piperidin]-1-amine]	–
< 1000	< 500	Cc1ccnc2c(Sc3cnc4[nH]c(N5CCC6(CC5)Cc5ccccc5[C@H]6N)nc4n3)ccnc12 [Example 254, (S)-1′-(5-((8-methyl-1,5-naphthyridin-4-yl)thio)-1H-imidazo[4,5-b]pyrazin-2-yl)-1,3-dihydrospiro[indene-2,4′-piperidin]-1-amine]	–
< 1000	< 500	Nc1nccc(Sc2cnc3[nH]c(N4CCC5(CC4)Cc4ccc(CF)cc4[C@H]5N)nc3n2)c1Cl [Example 245, (S)-1′-(5-((2-amino-3-chloropyridin-4-yl)thio)-1H-imidazo[4,5-b]pyrazin-2-yl)-6-(fluoromethyl)-1,3-dihydrospiro[indene-2,4′-piperidin]-1-amine]	–
< 1000	< 500	N[C@@H]1c2cc(F)ccc2CC12CCN(c1nc3ncc(Sc4ccncc4Cl)nc3[nH]1)CC2 [Example 183, (S)-1′-(6-((3-chloropyridin-4-yl)thio)-1H-imidazo[4,5-b]pyrazin-2-yl)-6-fluoro-1,3-dihydrospiro[indene-2,4′-piperidin]-1-amine]	–
> 5000	500 to 3000	N[C@@H]1c2cccnc2CC12CCN(c1nc3nc(Sc4ccnc(OC5COC5)c4Cl)cnc3[nH]1)CC2 [Example 153, (S)-1′-(5-((3-chloro-2-(oxetan-3-yloxy)pyridin-4-yl)thio)-1H-imidazo[4,5-b]pyrazin-2-yl)-5,7-dihydrospiro[cyclopenta[b]pyridine-6,4′-piperidin]-5-amine]	–
< 1000	< 500	Cc1nccc(Sc2cnc3nc(N4CCC5(CC4)Cc4ccccc4[C@H]5N)[nH]c3n2)c1Cl [Example 195, (S)-1′-(6-((3-chloro-2-methylpyridin-4-yl)thio)-1H-imidazo[4,5-b]pyrazin-2-yl)-1,3-dihydrospiro[indene-2,4′-piperidin]-1-amine]	–
1000 to 5000	500 to 3000	COc1cc(Sc2cnc3[nH]c(N4CCC5(CC4)Cc4ccccc4[C@H]5N)nc3n2)c(Cl)cn1 [Example 242, (S)-1′-(5-((5-chloro-2-methoxypyridin-4-yl)thio)-1H-imidazo[4,5-b]pyrazin-2-yl)-1,3-dihydrospiro[indene-2,4′-piperidin]-1-amine]	–
1000 to 5000	< 500	N[C@H]1c2ccncc2CC12CCN(c1nc3nc(Sc4ccnc(NC5CC5)c4Cl)cnc3[nH]1)CC2 [Example 197, (R)-1′-(5-((3-chloro-2-(cyclopropylamino)pyridin-4-yl)thio)-1H-imidazo[4,5-b]pyrazin-2-yl)-5,7-dihydrospiro[cyclopenta[c]pyridine-6,4′-piperidin]-5-amine]	–
< 1000	< 500	N[C@@H]1c2ccccc2CC12CCN(c1nc3nc(Sc4nccnc4Cl)cnc3[nH]1)CC2 [Example 158, (S)-1′-(5-((3-chloropyrazin-2-yl)thio)-1H-imidazo[4,5-b]pyrazin-2-yl)-1,3-dihydrospiro[indene-2,4′-piperidin]-1-amine]	–
> 5000	< 500	Nc1nccc(Sc2cnc3[nH]c(N4CCC5(CC4)Cc4ncc(F)cc4[C@@H]5N)nc3n2)c1Cl [Example 229, (R)-1′-(5-((2-amino-3-chloropyridin-4-yl)thio)-1H-imidazo[4,5-b]pyrazin-2-yl)-3-fluoro-5,7-dihydrospiro[cyclopenta[b]pyridine-6,4′-piperidin]-5-amine]	–
